According to patent publication US8802693B1, “Azaadamantane derivatives and methods of use” (priority 2011, dated 2014):

How the values were obtained:
[1] = system: subjects with mild-to-moderate Alzheimer's disease; test: Phase 2a Clinical Study A: ADAS-cog (11-item) total score; format: in vivo, human
Description: (§1) A Phase 2a proof-of-concept (POC) study in subjects with mild-to-moderate dementia of Alzheimer type was conducted. The study was a randomized, double-blind, placebo- and active-controlled, multicenter study designed to evaluate the efficacy and safety of Compound A (ABT-126) in subjects diagnosed with mild-to-moderate Alzheimer's disease, defined as meeting National Institute of Neurological and Communicative Disorders and Stroke/Alzheimer's Disease and Related Disorders Association (NINCDS/ADRDA) criteria for probable AD. […] Subjects were randomized in an equal ratio to one of four treatment groups (placebo, 5 mg Compound A, 25 mg Compound A, or donepezil) for a 12-week treatment period. The primary efficacy measure was the Alzheimer's Disease Assessment Scale—cognitive subscale (ADAS-Cog). Subjects were generally in good health and any chronic medical conditions were stable during the time of screening. Subjects were not taking other medication for Alzheimer's disease.
(§2) The study was a Phase 2, randomized, double-blind, placebo- and active-controlled, multicenter study designed to evaluate the dose-response relationship and safety of two doses of Compound A in subjects diagnosed with mild to moderate AD, defined as meeting NINCDS/ADRDA criteria for probable AD.
(§3) The study consisted of a Screening Period of up to 28 days, a 12-week treatment period, and a post-treatment period. The screening period consisted of three visits: Screening Visit 1, Screening Visit 2, and Day −1. Upon completion of Day −1 procedures, eligible subjects were randomized through an Interactive Voice Response/Interactive Web-Based (IVR/IWB) system. Subjects were randomized in an equal ratio to one of four treatment groups (placebo, 5 mg Compound A, 25 mg Compound A, or donepezil).
(§4) Each subject was instructed to take study drug once-daily in the morning for 12 weeks. Subjects randomized to donepezil took 5 mg donepezil QD for the first 4 weeks and began 10 mg donepezil QD at Week 4 through the remainder of the study. The subject and investigator were blinded to the treatment assignment throughout the study.
Subjects completed 4 visits during the treatment period at Week 2, Week 4, Week 8 and Week 12. Subjects returned to the study site for a follow-up visit approximately 2 weeks after the Week 12 or premature discontinuation visit for a safety evaluation. In addition, study site personnel contacted each subject's caregiver by telephone approximately 30 days after the subject's last dose of study drug to ascertain the subject's safety status.
(§5) The primary efficacy measure was the Alzheimer's Disease Assessment Scale-cognitive subscale (ADAS-cog). The ADAS-cog was designed to assess the cognitive impairments most common in AD. The ADAS-cog is a subscale of the ADAS, which focuses on cognitive functioning and memory. Two versions were used in the study: an 11-item version and an expanded (13-item) version. The 11-item version of the ADAS-cog was the primary endpoint measure in this study. ADAS-Cog (13-item) was administered throughout the study and the primary efficacy variable was considered the change from baseline to final evaluation on the ADAS-cog total score (11-item).
The 11-item ADAS-cog includes the following tests: Word Recall, Commands, Constructional Praxis, Naming Objects and Fingers, Ideational Praxis, Orientation, Word Recognition, Remembering Test Instructions, Comprehension of Spoken Language, Spoken Language Ability, and Word Finding Difficulty. The total score of the 11-item ADAS-cog ranges from 0 to 70, with a higher score representing greater impairment.
The primary efficacy variable was the change from baseline to the final observation on the ADAS-cog (11-item) total score. The primary efficacy analysis was carried out using an ANCOVA model with treatment and study site as the main effects and baseline score as the covariate. […]

[2] = system: subjects with mild-to-moderate Alzheimer's disease; test: Phase 2a Clinical Study A: ADAS-cog (13-item) total score; format: in vivo, human
Description: as §1, §2, §3, §4, §5
The 13-item ADAS-cog is comprised of the 11-item ADAS-cog with two additional items (Delayed Word Recall and a Number Cancellation Test) that are designed to assess attention and concentration. The Delayed Word Recall Test (range from 0 to 10) was an addition to the Word Recall Test to enhance sensitivity of the instrument in assessing cognition functioning on patients with mild AD. The Number Cancellation Test (range from 0 to 5) was reliable and sensitive to a broad range of dementia severity, and was recommended as a useful addition to the 11-item ADAS-cog. The total score of the 13-item ADAS-cog ranges from 0 to 85, with a higher score representing greater impairment. The ADAS-cog (13-item) was administered by a certified rater at Screening Visit 1, Screening Visit 2, and Day-1, as well as Weeks 4, 8, and 12 during the study.

[3] = donepezil 5 mg QD first 4 weeks then 10 mg QD, ANCOVA, baseline to final evaluation
[4] = donepezil 5 mg QD first 4 weeks then 10 mg QD, Change to Week 8
[5] = donepezil 5 mg QD first 4 weeks then 10 mg QD, Change to Week 12
[6] = donepezil 5 mg QD first 4 weeks then 10 mg QD, MMRM, Week 8
[7] = donepezil 5 mg QD first 4 weeks then 10 mg QD, MMRM, Week 12
[8] = donepezil 5 mg QD first 4 weeks then 10 mg QD, final evaluation, 12-week treatment
[9] = donepezil 5 mg QD, Change to Week 4
[10] = donepezil 5 mg QD, MMRM, Week 4

**Q.** `COc1cc2c(cc1OC)C(=O)C(CC1CCN(Cc3ccccc3)CC1)C2` (stereo not shown) [Donepezil, donepezil, reference compound] was tested. Which “ADAS-cog (11-Item) Total Score Difference From Placebo LS Mean (SE) of Difference” value [1, 3] did it give?
**A.** −1.43

**Q.** What about the “ADAS-cog (11-Item) Total Score LS Mean (SE) of Change” value [1, 3] of the same compound?
**A.** −2.11 (0.65)

**Q.** What about the “ADAS-cog (11-Item) Total Score Observed Mean (SD) change” value [1, 4] of the same compound?
**A.** −1.69 (4.96)

**Q.** And the “ADAS-cog (11-Item) Total Score Observed Mean (SD) change” value [1, 5]?
**A.** −2.91 (4.76)

**Q.** What about the “ADAS-cog (11-Item) Total Score Difference From Placebo LS Mean (SE) of Difference” value [1, 6] of the same compound?
**A.** −0.70 (0.83)

**Q.** And the “ADAS-cog (11-Item) Total Score LS Mean (SE) of Change from Baseline” value [1, 6]?
**A.** −1.26 (0.59)

**Q.** What about the “ADAS-cog (11-Item) Total Score Difference From Placebo LS Mean (SE) of Difference” value [1, 7] of the same compound?
**A.** −1.57 (0.91)

**Q.** And the “ADAS-cog (11-Item) Total Score LS Mean (SE) of Change from Baseline” value [1, 7]?
**A.** −2.40 (0.65)

**Q.** And the “ADAS-cog (11-Item) Total Score Observed Mean (SD) Final” value [1, 8]?
**A.** 23.21 (11.53)

**Q.** And the “ADAS-cog (11-Item) Total Score Observed Mean (SD) change” value [1, 9]?
**A.** −1.04 (3.53)

**Q.** What about the “ADAS-cog (11-Item) Total Score Difference From Placebo LS Mean (SE) of Difference” value [1, 10] of the same compound?
**A.** −0.68 (0.65)

**Q.** What about the “ADAS-cog (11-Item) Total Score LS Mean (SE) of Change from Baseline” value [1, 10] of the same compound?
**A.** −0.78 (0.47)

**Q.** And the “cognition relative to placebo, ADAS-cog (11-item) MMRM (in words)” value ([1]; donepezil treatment group)?
**A.** cognitive improvement relative to placebo

**Q.** And the “ADAS-cog (13-Item) Total Score Difference From Placebo LS Mean (SE) of Difference” value [2, 3]?
**A.** −2.49 (1.04)

**Q.** And the “ADAS-cog (13-Item) Total Score LS Mean (SE) of Change” value [2, 3]?
**A.** −3.27 (0.74)

**Q.** And the “ADAS-cog (13-Item) Total Score Observed Mean (SD) change” value [2, 4]?
**A.** −2.66 (5.48)

**Q.** And the “ADAS-cog (13-Item) Total Score Observed Mean (SD) change” value [2, 5]?
**A.** −4.17 (4.94)

**Q.** What about the “ADAS-cog (13-Item) Total Score Difference From Placebo LS Mean (SE) of Difference” value [2, 6] of the same compound?
**A.** −1.85 (0.98)

**Q.** What about the “ADAS-cog (13-Item) Total Score LS Mean (SE) of Change from Baseline” value [2, 6] of the same compound?
**A.** −2.20 (0.70)

**Q.** What about the “ADAS-cog (13-Item) Total Score Difference From Placebo LS Mean (SE) of Difference” value [2, 7] of the same compound?
**A.** −2.48 (1.06)

**Q.** What about the “ADAS-cog (13-Item) Total Score LS Mean (SE) of Change from Baseline” value [2, 7] of the same compound?
**A.** −3.61 (0.76)

**Q.** What about the “ADAS-cog (13-Item) Total Score Observed Mean (SD) Final” value [2, 8] of the same compound?
**A.** 33.90 (13.37)

**Q.** What about the “ADAS-cog (13-Item) Total Score Observed Mean (SD) change” value [2, 9] of the same compound?
**A.** −1.84 (3.94)

**Q.** And the “ADAS-cog (13-Item) Total Score Difference From Placebo LS Mean (SE) of Difference” value [2, 10]?
**A.** −1.53 (0.74)

**Q.** What about the “ADAS-cog (13-Item) Total Score LS Mean (SE) of Change from Baseline” value [2, 10] of the same compound?
**A.** −1.53 (0.53)
